Patent publication US20260022142A1, “MACROCYCLIC IMMUNOMODULATORS” (Bristol-Myers Squibb Company, priority 2022, published 2026)
Numbered stars: 1 amine (or outer) side, 2 acyl side, 3 side chain; on linkers, the order of the positions; unused ones are H or OH. Bridge positions count the residues as written; N and C are the ends. Square brackets hold non-standard residues; d marks the D form. Peptide text beside a SMILES is read from it. * marks the point of attachment. ξ: configuration not given here. Phe(3-CF3) = N[C@@H](Cc1cccc(C(F)(F)F)c1)C(=O)O; Phe(4-COOH) = N[C@@H](Cc1ccc(C(=O)O)cc1)C(=O)O; Bip = N[C@@H](Cc1ccc(-c2ccccc2)cc1)C(=O)O; Phe(3-OMe) = COc1cccc(C[C@H](N)C(=O)O)c1; NH(CH2)14COOH = O=C(O)CCCCCCCCCCCCCCN*; Phe(3-Me) = Cc1cccc(C[C@H](N)C(=O)O)c1; Val(3-OH) = CC(C)(O)[C@H](N)C(=O)O; X16 = O=C(C1CCC(CN[*:1])CC1)[*:2]; hArg = N=C(N)NCCCC[C@H](N)C(=O)O; hPhe = N[C@@H](CCc1ccccc1)C(=O)O; 4Pal = N[C@@H](Cc1ccncc1)C(=O)O; Cha = N[C@@H](CC1CCCCC1)C(=O)O; Cit = NC(=O)NCCC[C@H](N)C(=O)O; Thr(3ξ) = CC(O)[C@H](N)C(=O)O; 12Ado = NCCCCCCCCCCCC(=O)O; Carboxymethyl = O=C(O)C*; Nle = CCCC[C@H](N)C(=O)O; Orn = NCCC[C@H](N)C(=O)O; Aun = NCCCCCCCCCCC(=O)O; Dab = NCC[C@H](N)C(=O)O; Dap = NC[C@H](N)C(=O)O; AEEA = NCCOCCOCC(=O)O; ξV = CC(C)C(N)C(=O)O

biological target: T1, PD-1/PD-L1 interaction (PE-labeled human PD-L1-Ig binding to Jurkat cell line over-expressing human PD-1) (Homo sapiens, UniProt Q15116); test: Jurkat-PD-1 Cell Binding High-Content Screening Assay (CBA); type: cell-based; details: Jurkat cell line over-expressing human PD-1; PE-labeled PD-L1-Ig 20 nM final; read-out: Jurkat hPD1-PDL1 IC50
T1 construct: expressed in transfected cells; host or cells: Jurkat
T1 sequence (Q15116 25-288): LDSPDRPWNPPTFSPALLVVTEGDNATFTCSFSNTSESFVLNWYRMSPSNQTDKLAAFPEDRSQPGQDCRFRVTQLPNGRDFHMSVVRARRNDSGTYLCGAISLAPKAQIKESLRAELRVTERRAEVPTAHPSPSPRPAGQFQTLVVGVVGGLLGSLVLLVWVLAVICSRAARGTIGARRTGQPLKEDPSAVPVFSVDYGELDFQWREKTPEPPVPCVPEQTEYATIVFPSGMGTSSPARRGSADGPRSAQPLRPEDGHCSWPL
Summary of the method: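 Jurkat cells stably over-expressing human PD-1 were seeded in DMEM with 10% fetal calf serum and pre-incubated with compound for 2 h at 37° C. PE-labeled human PD-L1-Ig was then added at 20 nM final for 1 hour, after which cells were fixed with paraformaldehyde, Hoechst-stained and imaged by high-content microscopy.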

Structure (SMILES)	IC50
CC[C@H](C)[C@@H]1NC(=O)[C@H](Cc2ccc(-c3ccccc3)cc2)NC(=O)[C@H](C(C)C)NC(=O)[C@H](Cc2cccc(C)c2)NC(=O)[C@H](CC(=O)O)NC(=O)[C@H](Cc2ccc(C(=O)O)cc2)NC(=O)[C@H](Cc2ccncc2)NC(=O)CSC[C@@H](C(=O)NCCOCCOCC(=O)N[C@@H](CCN)C(=O)NCCCCCCCCCCC(=O)O)NC(=O)[C@H]([C@@H](C)O)NC(=O)[C@H](C(C)C)NC(=O)[C@H](CC2CCCCC2)NC(=O)[C@H](CCN)NC(=O)[C@@H](CC(C)C)NC(=O)[C@H](CCCN)NC1=O [Compound 1189] ({CH2CO}-[4Pal][Phe(4-COOH)]D[Phe(3-Me)]V[Bip]I[Orn][dL][Dab][Cha]VTC[AEEA][Dab][Aun]-OH; thioether N-14)	23.6 nM
CCCC[C@@H]1NC(=O)[C@H](C(C)C)NC(=O)[C@H](CC2CCCCC2)NC(=O)[C@H](CCN)NC(=O)[C@@H](CC(C)C)NC(=O)[C@H](CCCN)NC(=O)[C@H](Cc2ccc(O)cc2)NC(=O)[C@H](Cc2ccc(-c3ccccc3)cc2)NC(=O)[C@H](Cc2ccc(O)cc2)NC(=O)[C@H](Cc2cccc(C)c2)NC(=O)[C@H](CC(=O)O)NC(=O)[C@H](Cc2ccc(OCC(=O)O)cc2)NC(=O)[C@H](CN)NC(=O)CSC[C@@H](C(=O)N[C@@H](CCN)C(=O)NCCCCCCCCCCC(=O)O)NC1=O [Compound 2714] ({CH2CO}-[Dap]Y(Carboxymethyl)D[Phe(3-Me)]Y[Bip]Y[Orn][dL][Dab][Cha]V[Nle]C[Dab][Aun]-OH; thioether N-14)	406 nM
Cc1cccc(C[C@@H]2NC(=O)[C@H](CC(=O)O)NC(=O)[C@H](Cc3ccc(OCC(=O)O)cc3)NC(=O)[C@H](CN)NC(=O)CSC[C@@H](C(=O)NCC3CCC(C(=O)NCCCCCCCCCCC(=O)O)CC3)NC(=O)[C@H]([C@@H](C)O)NC(=O)[C@H](C(C)C)NC(=O)[C@H](CC3CCCCC3)NC(=O)[C@H](CCN)NC(=O)[C@@H](CC(C)C)NC(=O)[C@H](CCCN)NC(=O)[C@H](CCCNC(N)=O)NC(=O)[C@H](Cc3ccc(-c4ccccc4)cc3)NC(=O)[C@H](C(C)C)NC2=O)c1 (stereo partly drawn) [Compound 2623] ({CH2CO}-[Dap]Y(Carboxymethyl)D[Phe(3-Me)]V[Bip][Cit][Orn][dL][Dab][Cha]VTC[X16][Aun]-OH; thioether N-14)	27.5 nM
CC(C)C[C@H]1NC(=O)[C@H](CCCN)NC(=O)[C@H](C(C)C)NC(=O)[C@H](Cc2ccc(-c3ccccc3)cc2)NC(=O)[C@H](C(C)C)NC(=O)[C@H](Cc2c[nH]c3ccccc23)NC(=O)[C@H](CC(=O)O)NC(=O)[C@H](Cc2ccc(C(=O)O)cc2)NC(=O)[C@H](Cc2ccc(OCC(=O)O)cc2)NC(=O)CSC[C@@H](C(=O)N[C@H](CO)C(=O)NCCOCCOCC(=O)N[C@@H](CCCN)C(=O)NCCCCCCCCCCCC(=O)O)NC(=O)[C@H](CO)NC(=O)[C@H](C(C)C)NC(=O)[C@H](CC2CCCCC2)NC(=O)[C@H](CCN)NC1=O [Compound 3064] ({CH2CO}-Y(Carboxymethyl)[Phe(4-COOH)]DWV[Bip]V[Orn][dL][Dab][Cha]VSC[dS][AEEA][Orn][12Ado]-OH; thioether N-14)	32.1 nM
CC(C)C[C@H]1NC(=O)[C@H](CCCN)NC(=O)[C@H](Cc2ccc(C(=O)O)cc2)NC(=O)[C@H](Cc2ccc(-c3ccccc3)cc2)NC(=O)[C@H](Cc2ccc(C(=O)O)cc2)NC(=O)[C@H](Cc2cccc(C(F)(F)F)c2)NC(=O)[C@H](CC(=O)O)NC(=O)[C@H](Cc2ccc(OCC(=O)O)cc2)NC(=O)[C@H](CC2CCCCC2)NC(=O)CSC[C@@H](C(=O)N[C@@H](CCN)C(=O)NCCOCCOCC(=O)NCCOCCOCC(=O)NCCCCCCCCCCCCCCC(=O)O)NC(=O)[C@H](CO)NC(=O)[C@H](C(C)(C)O)NC(=O)[C@H](CC2CCCCC2)NC(=O)[C@H](CCN)NC1=O [Compound 3830] ({CH2CO}-[Cha]Y(Carboxymethyl)D[Phe(3-CF3)][Phe(4-COOH)][Bip][Phe(4-COOH)][Orn][dL][Dab][Cha][Val(3-OH)]SC[Dab][AEEA][AEEA]-{NH(CH2)14COOH}; thioether N-14)	200 nM
CC(C)C[C@H]1NC(=O)[C@H](CCCN)NC(=O)[C@H](Cc2ccc(O)cc2)NC(=O)[C@H](Cc2ccc(-c3ccccc3)cc2)NC(=O)[C@H](C(C)C)NC(=O)[C@H](Cc2c[nH]c3ccccc23)NC(=O)[C@H](CC(=O)O)NC(=O)[C@H](Cc2ccc(OCC(=O)O)cc2)NC(=O)[C@H](C(C)O)NC(=O)CSC[C@@H](C(=O)N[C@@H](CCN)C(=O)NCCCCCCCCCCC(=O)O)NC(=O)[C@H](CCCCN)NC(=O)[C@H](C(C)O)NC(=O)[C@H](CC2CCCCC2)NC(=O)[C@H](CCN)NC1=O (stereo partly drawn) [Compound 3668] ({CH2CO}-[Thr(3ξ)]Y(Carboxymethyl)DWV[Bip]Y[Orn][dL][Dab][Cha][Thr(3ξ)]KC[Dab][Aun]-OH; thioether N-14)	78.3 nM

These reach a lower IC50. Values come first.

IC50	Structure (SMILES)
10.9 nM	COc1cccc(C[C@@H]2NC(=O)[C@H](CC(=O)O)NC(=O)[C@H](Cc3ccc(OCC(=O)O)cc3)NC(=O)[C@H](CN)NC(=O)CSC[C@@H](C(=O)N[C@@H](CCN)C(=O)NCCOCCOCC(=O)NCCCCCCCCCCC(=O)O)NC(=O)[C@H](CCCN)NC(=O)[C@H](C(C)C)NC(=O)[C@H](CC3CCCCC3)NC(=O)[C@H](CCN)NC(=O)[C@@H](CC(C)C)NC(=O)[C@H](CCCN)NC(=O)[C@H](Cc3ccc(O)cc3)NC(=O)[C@H](Cc3ccc(-c4ccccc4)cc3)NC(=O)[C@H](C(C)C)NC2=O)c1 [Compound 1289] ({CH2CO}-[Dap]Y(Carboxymethyl)D[Phe(3-OMe)]V[Bip]Y[Orn][dL][Dab][Cha]V[Orn]C[Dab][AEEA][Aun]-OH; thioether N-14)
11.7 nM	CC(C)C[C@H]1NC(=O)[C@H](CCCN)NC(=O)[C@H](Cc2ccc(O)cc2)NC(=O)[C@H](Cc2ccc(-c3ccccc3)cc2)NC(=O)[C@H](C(C)C)NC(=O)[C@H](Cc2c[nH]c3ccccc23)NC(=O)[C@H](CC(=O)O)NC(=O)[C@H](Cc2ccc(C(=O)O)cc2)NC(=O)[C@H](Cc2ccc(OCC(=O)O)cc2)NC(=O)CSC[C@@H](C(=O)NCCOCCOCC(=O)NCCCCCCCCCCC(=O)O)NC(=O)[C@H](CCCNC(N)=O)NC(=O)C(C(C)C)NC(=O)[C@H](CC2CCCCC2)NC(=O)[C@H](CCN)NC1=O (stereo partly drawn) [Compound 1243] ({CH2CO}-Y(Carboxymethyl)[Phe(4-COOH)]DWV[Bip]Y[Orn][dL][Dab][Cha][ξV][Cit]C[AEEA][Aun]-OH; thioether N-14)
22.6 nM	Cc1cccc(C[C@@H]2NC(=O)[C@H](CC(=O)O)NC(=O)[C@H](Cc3ccc(OCC(=O)O)cc3)NC(=O)[C@H](CCCNC(=N)N)NC(=O)CSC[C@@H](C(=O)N[C@@H](CCCCN)C(=O)N[C@@H](CO)C(=O)NCCCCCCCCCCCC(=O)O)NC(=O)[C@H](CN)NC(=O)[C@H](C(C)C)NC(=O)[C@H](CC3CCCCC3)NC(=O)[C@H](CCN)NC(=O)[C@@H](CC(C)C)NC(=O)[C@H](CCCN)NC(=O)[C@H](CCCNC(N)=O)NC(=O)[C@H](Cc3ccc(-c4ccccc4)cc3)NC(=O)[C@H](C(C)C)NC2=O)c1 [Compound 3534] ({CH2CO}-RY(Carboxymethyl)D[Phe(3-Me)]V[Bip][Cit][Orn][dL][Dab][Cha]V[Dap]CKS[12Ado]-OH; thioether N-14)
15.2 nM	Cc1cccc(C[C@@H]2NC(=O)[C@H](CC(=O)O)NC(=O)[C@H](Cc3ccc(OCC(=O)O)cc3)NC(=O)[C@H](CCc3ccccc3)NC(=O)CSC[C@@H](C(=O)N[C@@H](CCN)C(=O)NCCCCCCCCCCC(=O)O)NC(=O)[C@H](CO)NC(=O)[C@H](C(C)(C)O)NC(=O)[C@H](CC3CCCCC3)NC(=O)[C@H](CCN)NC(=O)[C@@H](CC(C)C)NC(=O)[C@H](CCCN)NC(=O)[C@H](Cc3ccc(OCC(=O)O)cc3)NC(=O)[C@H](Cc3ccc(-c4ccccc4)cc3)NC(=O)[C@H](Cc3ccc(OCC(=O)O)cc3)NC2=O)c1 [Compound 2231] ({CH2CO}-[hPhe]Y(Carboxymethyl)D[Phe(3-Me)]Y(Carboxymethyl)[Bip]Y(Carboxymethyl)[Orn][dL][Dab][Cha][Val(3-OH)]SC[Dab][Aun]-OH; thioether N-14)
18.4 nM	CC(C)C[C@H]1NC(=O)[C@H](CCCN)NC(=O)[C@H](C(C)C)NC(=O)[C@H](Cc2ccc(-c3ccccc3)cc2)NC(=O)[C@H](C(C)C)NC(=O)[C@H](Cc2c[nH]c3ccccc23)NC(=O)[C@H](CC(=O)O)NC(=O)[C@H](Cc2ccc(C(=O)O)cc2)NC(=O)[C@H](Cc2ccc(OCC(=O)O)cc2)NC(=O)CSC[C@@H](C(=O)NCCOCCOCC(=O)N[C@@H](CCCCN)C(=O)NCCCCCCCCCCC(=O)O)NC(=O)[C@H](CCCCN)NC(=O)[C@H](C(C)C)NC(=O)[C@H](CC2CCCCC2)NC(=O)[C@H](CCN)NC1=O [Compound 2593] ({CH2CO}-Y(Carboxymethyl)[Phe(4-COOH)]DWV[Bip]V[Orn][dL][Dab][Cha]VKC[AEEA]K[Aun]-OH; thioether N-14)
12.1 nM	CC(C)C[C@H]1NC(=O)[C@H](CCCN)NC(=O)[C@H](C(C)C)NC(=O)[C@H](Cc2ccc(-c3ccccc3)cc2)NC(=O)[C@H](C(C)C)NC(=O)[C@H](Cc2c[nH]c3ccccc23)NC(=O)[C@H](CC(=O)O)NC(=O)[C@H](Cc2ccc(OCC(=O)O)cc2)NC(=O)[C@H](CCCCNC(=N)N)NC(=O)CSC[C@@H](C(=O)N[C@@H](CC(N)=O)C(=O)NCCOCCOCC(=O)N[C@@H](CCCN)C(=O)NCCCCCCCCCCC(=O)O)NC(=O)[C@H](C(C)O)NC(=O)[C@H](C(C)C)NC(=O)[C@H](CC2CCCCC2)NC(=O)[C@H](CCN)NC1=O (stereo partly drawn) [Compound 3030] ({CH2CO}-[hArg]Y(Carboxymethyl)DWV[Bip]V[Orn][dL][Dab][Cha]V[Thr(3ξ)]CN[AEEA][Orn][Aun]-OH; thioether N-14)
8.8 nM	Cc1cccc(C[C@@H]2NC(=O)[C@H](CC(=O)O)NC(=O)[C@H](Cc3ccc(OCC(=O)O)cc3)NC(=O)[C@H](CN)NC(=O)CSC[C@@H](C(=O)N[C@@H](CCN)C(=O)NCCOCCOCC(=O)NCCCCCCCCCCC(=O)O)NC(=O)[C@H](C(C)O)NC(=O)[C@H](C(C)C)NC(=O)[C@H](CC3CCCCC3)NC(=O)[C@H](CCN)NC(=O)[C@@H](CC(C)C)NC(=O)[C@H](CCCN)NC(=O)[C@H](Cc3ccc(O)cc3)NC(=O)[C@H](Cc3ccc(-c4ccccc4)cc3)NC(=O)[C@H](C(C)C)NC2=O)c1 (stereo partly drawn) [Compound 2587] ({CH2CO}-[Dap]Y(Carboxymethyl)D[Phe(3-Me)]V[Bip]Y[Orn][dL][Dab][Cha]V[Thr(3ξ)]C[Dab][AEEA][Aun]-OH; thioether N-14)
